Measurements as given in US6896883B2 (priority 1997, dated 2005).

Tested on: F. graminearum
Type: in vivo
Details: wheat seeds in F. graminearum-infested soil, 7 days after planting

With `c1ccc2[nH]c(-c3cscn3)nc2c1` [Thiabendazole, thiabendazole] the “% Germination” value was 80 a %.
